According to publication PMC4669411 (FEBS Open Bio, 2015):

How the values were obtained:
PputG6PDH-1 [1] = molecular target: T1, PputG6PDH-1 (Pseudomonas putida, UniProt Q88P31); experiment: initial rates, NAD; assay type: biochemical
T1 sequence (Q88P31 1-489): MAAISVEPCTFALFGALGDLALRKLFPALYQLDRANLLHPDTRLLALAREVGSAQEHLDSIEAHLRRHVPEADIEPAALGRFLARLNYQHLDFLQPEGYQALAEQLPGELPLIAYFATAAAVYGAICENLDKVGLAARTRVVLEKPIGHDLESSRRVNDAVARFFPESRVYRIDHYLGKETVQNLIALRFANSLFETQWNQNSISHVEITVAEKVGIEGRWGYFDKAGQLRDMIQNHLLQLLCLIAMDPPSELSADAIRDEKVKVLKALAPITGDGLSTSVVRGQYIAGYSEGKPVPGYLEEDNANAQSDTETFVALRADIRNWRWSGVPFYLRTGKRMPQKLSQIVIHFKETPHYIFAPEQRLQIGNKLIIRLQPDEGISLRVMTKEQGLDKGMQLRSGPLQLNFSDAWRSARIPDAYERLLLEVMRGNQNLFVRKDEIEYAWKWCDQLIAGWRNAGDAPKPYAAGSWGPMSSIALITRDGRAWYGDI

PputG6PDH-1 [2] = molecular target: T1, PputG6PDH-1; experiment: progress curves at […] nm, product inhibition, global fit; assay type: biochemical

Ki (PputG6PDH-1 [1]) [µM]	Ki (PputG6PDH-1 [2]) [µM]	Compound
18 ± 3		NC(=O)C1=CN([C@@H]2O[C@H](COP(=O)(O)OP(=O)(O)OC[C@H]3O[C@@H](n4cnc5c(N)ncnc54)[C@H](OP(=O)(O)O)[C@@H]3O)[C@@H](O)[C@H]2O)C=CC1 [NADPH]
	480 ± 7	NC(=O)C1=CN([C@@H]2O[C@H](COP(=O)(O)OP(=O)(O)OC[C@H]3O[C@@H](n4cnc5c(N)ncnc54)[C@H](O)[C@@H]3O)[C@@H](O)[C@H]2O)C=CC1 [NADH]
